Among the data in patent US8735414B2 (priority 2009, dated 2014) are melting point and IC50 values, retold here.

Series [1] has as its system bicistronic HCV replicon (replicon RNA, GenBank Accession No. AJ242654). Briefly: HCV Replicon Assay. As to conditions: Hepatitis C virus, 72 h, read-out: Replicon IC50. In kind it is cell-based. Background: In antiviral work, replicon cells carry a viral genome segment that copies itself.

The structures appear in SMILES notation. A value given as a limit tells only on which side of the number the result lay.

The melting point is the temperature, or range, at which the solid turns liquid. One may read the IC50 as the midpoint of a concentration-inhibition curve. As to `C[C@H](NS(=O)(=O)c1ccc(-c2c(C#N)c3ccc(CF)cc3n2C2CCC2)nc1)C(F)(F)F` [compound 362, 6-[3-cyano-1-cyclobutyl-6-(fluoromethyl)-1H-indol-2-yl]-N-[(2S)-1,1,1-trifluoropropan-2-yl]pyridine-3-sulfonamide], the melting point lay within 205 to 209 °C. Also, the IC50 in series [1] is under 500 nM.
On the same counts, the results for `N#Cc1c(-c2ccc(S(=O)(=O)NC3(C(F)(F)F)CC3)cn2)n(C2CCC2)c2ccc(F)cc12` [compound 329, 6-(3-cyano-1-cyclobutyl-5-fluoro-1H-indol-2-yl)-N-[1-(trifluoromethyl)cyclopropyl]pyridine-3-sulfonamide] are 176 to 183 °C and under 500 nM.
`Cc1cc2c(cc1F)c(C#N)c(-c1ccc(S(=O)(=O)N[C@@H](C)C(F)(F)F)cn1)n2-c1cc(F)cc(F)n1` [compound 1001, 6-[3-cyano-1-(4,6-difluoropyridin-2-yl)-5-fluoro-6-methyl-1H-indol-2-yl]-N-[(2S)-1,1,1-trifluoropropan-2-yl]pyridine-3-sulfonamide] registered a melting point of 190.2 to 196.8 °C. Moreover, the IC50 in series [1] was under 500 nM.
Taken in the same sequence, the figures for `CCc1cc2c(cc1F)c(C#N)c(-c1ccc(S(=O)(=O)N[C@@H](C)C(F)(F)F)cn1)n2-c1ccc(C#N)cc1` [compound 1007, 6-[3-cyano-1-(4-cyanophenyl)-6-ethyl-5-fluoro-1H-indol-2-yl]-N-[(2S)-1,1,1-trifluoropropan-2-yl]pyridine-3-sulfonamide] were 288 to 293 °C and under 500 nM.
Taken in the same sequence, the figures for `Cc1ccc(-n2c(-c3ccc(S(=O)(=O)NC(CF)CF)cn3)c(C#N)c3cc(F)ccc32)cc1` [compound 356, 6-[3-cyano-5-fluoro-1-(4-methylphenyl)-1H-indol-2-yl]-N-(1,3-difluoropropan-2-yl)pyridine-3-sulfonamide] were 208 to 210 °C and under 500 nM.
The compound `N#Cc1c(-c2ccc(S(=O)(=O)NC(CF)CF)cn2)n(-c2ncccn2)c2cc(OC(F)F)ccc12` [compound 635, 6-[3-cyano-6-(difluoromethoxy)-1-(pyrimidin-2-yl)-1H-indol-2-yl]-N-(1,3-difluoropropan-2-yl)pyridine-3-sulfonamide] yielded a melting point of 173 to 176 °C. Further, the IC50 in series [1] is under 500 nM.
Taken in the same sequence, the figures for `CC(C)(NS(=O)(=O)c1ccc(-c2c(C#N)c3ccc(OC(F)F)cc3n2C2CCCC2)nc1)C(F)(F)F` [compound 382, 6-[3-cyano-1-cyclopentyl-6-(difluoromethoxy)-1H-indol-2-yl]-N-(1,1,1-trifluoro-2-methylpropan-2-yl)pyridine-3-sulfonamide] were 170 to 174 °C and under 500 nM.
Taken in the same sequence, the figures for `Cc1ccc2c(C#N)c(-c3ccc(S(=O)(=O)NC(C)(C)C(F)(F)F)cn3)n(-c3ncccn3)c2c1` [compound 689, 6-[3-cyano-6-methyl-1-(pyrimidin-2-yl)-1H-indol-2-yl]-N-(1,1,1-trifluoro-2-methylpropan-2-yl)pyridine-3-sulfonamide] were 202 to 205 °C and 500 to 2000 nM.
For `N#Cc1c(-c2ncc(S(=O)(=O)NC(CF)CF)cn2)n(-c2ccccc2)c2cc(OC(F)F)ccc12` [compound 610, 2-[3-cyano-6-(difluoromethoxy)-1-phenyl-1H-indol-2-yl]-N-(1,3-difluoropropan-2-yl)pyrimidine-5-sulfonamide], the melting point fell in the range of 206 to 208 °C. In series [1], the IC50 was under 500 nM.
Taken in the same sequence, the figures for `C[C@H](NS(=O)(=O)c1ccc(-c2c(C#N)c3ccc(F)cc3n2C2CCCCC2)nc1)C(F)(F)F` [compound 394, 6-(3-cyano-1-cyclohexyl-6-fluoro-1H-indol-2-yl)-N-[(2S)-1,1,1-trifluoropropan-2-yl]pyridine-3-sulfonamide] were 213 to 215 °C and under 500 nM.
Compound `C[C@H](NS(=O)(=O)c1cnc(-c2c(C#N)c3ccc(CC(F)F)cc3n2CC2CC2)nc1)C1CC1` [compound 619, 2-[3-cyano-1-(cyclopropylmethyl)-6-(2,2-difluoroethyl)-1H-indol-2-yl]-N-[(1S)-1-cyclopropylethyl]pyrimidine-5-sulfonamide] came in with a melting point of 144 to 150 °C. Also, in series [1], the IC50 is under 500 nM.
On the same counts, the results for `CCc1cc2c(cc1F)c(C#N)c(-c1ccc(S(=O)(=O)N[C@@H](C)C(F)(F)F)cn1)n2C1CCCC1` [compound 633, 6-(3-cyano-1-cyclopentyl-6-ethyl-5-fluoro-1H-indol-2-yl)-N-[(2S)-1,1,1-trifluoropropan-2-yl]pyridine-3-sulfonamide] are 201 to 202 °C and under 500 nM.
On the same counts, the results for `CCc1cc2c(cc1F)c(C#N)c(-c1cc(C)c(S(=O)(=O)N[C@H](C)C(F)(F)F)cn1)n2-c1ccccn1` [compound 891, 6-[3-cyano-6-ethyl-5-fluoro-1-(pyridin-2-yl)-1H-indol-2-yl]-4-methyl-N-[(2R)-1,1,1-trifluoropropan-2-yl]pyridine-3-sulfonamide] are 178 to 183 °C and under 500 nM.
On the same counts, the results for `COc1cc2c(cc1F)c(C#N)c(-c1ccc(S(=O)(=O)NC(C)C)cn1)n2C1CCC1` [compound 101, 6-(3-cyano-1-cyclobutyl-5-fluoro-6-methoxy-1H-indol-2-yl)-N-(propan-2-yl)pyridine-3-sulfonamide] are 234 to 237 °C and under 500 nM.
For `CC(C)(C)NS(=O)(=O)c1ccc(-c2c(C#N)c3cc(F)c(C4CC4)cc3n2C2CCCC2)nc1` [compound 832, N-tert-butyl-6-(3-cyano-1-cyclopentyl-6-cyclopropyl-5-fluoro-1H-indol-2-yl)pyridine-3-sulfonamide], the melting point fell in the range of 186 to 188 °C. Further, the IC50 in series [1] is under 500 nM.
Taken in the same sequence, the figures for `CCc1cc2c(cc1F)c(C#N)c(-c1ccc(S(=O)(=O)N[C@@H](C)C(F)(F)F)cn1)n2-c1cccc(F)c1` [compound 1008, 6-[3-cyano-6-ethyl-5-fluoro-1-(3-fluorophenyl)-1H-indol-2-yl]-N-[(2S)-1,1,1-trifluoropropan-2-yl]pyridine-3-sulfonamide] were 210 to 214 °C and under 500 nM.
Taken in the same sequence, the figures for `CCc1cc2c(cc1F)c(C#N)c(-c1ccc(S(=O)(=O)N[C@@H](C)C(F)(F)F)cn1)n2-c1ncc(Cl)cn1` [compound 942, 6-[1-(5-chloropyrimidin-2-yl)-3-cyano-6-ethyl-5-fluoro-1H-indol-2-yl]-N-[(2S)-1,1,1-trifluoropropan-2-yl]pyridine-3-sulfonamide] were 222 to 229 °C and under 500 nM.
On the same counts, the results for `CCc1cc2c(cc1F)c(C#N)c(-c1ccc(S(=O)(=O)NC(C)(C)C)cn1)n2-c1ccccn1` [compound 882, N-tert-butyl-6-[3-cyano-6-ethyl-5-fluoro-1-(pyridin-2-yl)-1H-indol-2-yl]pyridine-3-sulfonamide] are 200 to 205 °C and under 500 nM.
`C[C@H](NS(=O)(=O)c1cnc(-c2c(C#N)c3ccc(CC(F)F)cc3n2C2CCC2)nc1)C(F)(F)F` [compound 385, 2-[3-cyano-1-cyclobutyl-6-(2,2-difluoroethyl)-1H-indol-2-yl]-N-[(2S)-1,1,1-trifluoropropan-2-yl]pyrimidine-5-sulfonamide]: the melting point was in the range of 216 to 218 °C. Moreover, the IC50 in series [1] was under 500 nM.
On the same counts, the results for `Cc1cc2c(cc1F)c(C#N)c(-c1ncc(S(=O)(=O)N[C@@H](C)C(F)(F)F)cc1C)n2-c1ncccn1` [compound 888, 6-[3-cyano-5-fluoro-6-methyl-1-(pyrimidin-2-yl)-1H-indol-2-yl]-5-methyl-N-[(2S)-1,1,1-trifluoropropan-2-yl]pyridine-3-sulfonamide] are 201 to 204 °C and under 500 nM.
On the same counts, the results for `COc1ccc2c(C#N)c(-c3ccc(S(=O)(=O)N[C@@H](C)C(F)(F)F)cn3)n(C3CCCCC3)c2c1` [compound 519, 6-(3-cyano-1-cyclohexyl-6-methoxy-1H-indol-2-yl)-N-[(2S)-1,1,1-trifluoropropan-2-yl]pyridine-3-sulfonamide] are 197 to 204 °C and under 500 nM.
In turn, `Cc1ccc2c(C#N)c(-c3ccc(S(=O)(=O)N[C@@H](C)C(F)(F)F)cn3)n(-c3ncccn3)c2c1` [compound 677, 6-[3-cyano-6-methyl-1-(pyrimidin-2-yl)-1H-indol-2-yl]-N-[(2S)-1,1,1-trifluoropropan-2-yl]pyridine-3-sulfonamide] showed a melting point of 195 to 198 °C. Further, the IC50 in series [1] was under 500 nM.
Taken in the same sequence, the figures for `COc1ccc2c(C#N)c(-c3ccc(S(=O)(=O)NC(CF)CF)cn3)n(C3CCC3)c2c1` [compound 229, 6-(3-cyano-1-cyclobutyl-6-methoxy-1H-indol-2-yl)-N-(1,3-difluoropropan-2-yl)pyridine-3-sulfonamide] were 174 to 177 °C and under 500 nM.
Taken in the same sequence, the figures for `N#Cc1c(-c2ccc(S(=O)(=O)NC(CF)CF)cn2)n(C2CCCCC2)c2ccc(F)cc12` [compound 104, 6-(3-cyano-1-cyclohexyl-5-fluoro-1H-indol-2-yl)-N-(1,3-difluoropropan-2-yl)pyridine-3-sulfonamide] were 138 to 141 °C and under 500 nM.
On the same counts, the results for `COc1cc2c(C#N)c(-c3ccc(S(=O)(=O)N[C@@H](C)C(F)(F)F)cn3)n(C3CCCC3)c2cc1C` [compound 669, 6-(3-cyano-1-cyclopentyl-5-methoxy-6-methyl-1H-indol-2-yl)-N-[(2S)-1,1,1-trifluoropropan-2-yl]pyridine-3-sulfonamide] are 211 to 211.5 °C and under 500 nM.
The compound `N#Cc1c(-c2ccc(S(=O)(=O)NC(CF)CF)cn2)n(C2CCC2)c2cc(Cl)c(F)cc12` [compound 50, 6-(6-chloro-3-cyano-1-cyclobutyl-5-fluoro-1H-indol-2-yl)-N-(1,3-difluoropropan-2-yl)pyridine-3-sulfonamide] showed a melting point of 211 to 213 °C. For the same compound, the IC50 in series [1] is under 500 nM.
